{"source": "patent US20230074545A1", "about": "“TREATMENT OF CANCER WITH CDK12/13 INHIBITORS” (Kinnate Biopharma Inc., priority 2019, published 2023)", "assay_in_all_cases": "Radiometric kinase panel", "assay_type_in_all_cases": "biochemical", "key": {"PBK": {"biological_target": "T1, PBK (Homo sapiens, UniProt Q96KB5)", "T1 construct": "purchased ProQinase GmbH (Reaction Biology); host or cells: Sf9 insect cells or E. coli (not specified per kinase)", "T1 sequence (Q96KB5 whole entry, the tested form may be a part)": "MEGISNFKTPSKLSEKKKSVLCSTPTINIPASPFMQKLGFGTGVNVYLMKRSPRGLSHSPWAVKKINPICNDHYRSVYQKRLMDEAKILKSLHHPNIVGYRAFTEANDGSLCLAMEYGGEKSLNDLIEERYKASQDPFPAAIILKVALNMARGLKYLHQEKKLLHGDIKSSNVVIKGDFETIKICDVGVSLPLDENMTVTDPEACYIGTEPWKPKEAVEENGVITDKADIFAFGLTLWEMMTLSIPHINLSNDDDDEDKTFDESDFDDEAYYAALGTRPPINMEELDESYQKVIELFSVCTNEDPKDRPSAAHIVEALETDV", "summary_of_the_method": "(§1)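 Activity was measured radiometrically from [gamma-33P]-ATP incorporation into substrate. The kinases were recombinant human GST- or His-tagged proteins, full-length or active fragments, expressed in Sf9 or E. coli. Compound in 10% DMSO was added before the enzyme/substrate mix, which started the reaction.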"}, "p38beta": {"biological_target": "T2, p38beta (Homo sapiens, UniProt Q15759)", "T2 construct": "either as full-length or enzymatically active fragments; purchased ProQinase GmbH (Reaction Biology); host or cells: Sf9 insect cells or E. coli (not specified per kinase)", "T2 sequence (Q15759 whole entry, the tested form may be a part)": "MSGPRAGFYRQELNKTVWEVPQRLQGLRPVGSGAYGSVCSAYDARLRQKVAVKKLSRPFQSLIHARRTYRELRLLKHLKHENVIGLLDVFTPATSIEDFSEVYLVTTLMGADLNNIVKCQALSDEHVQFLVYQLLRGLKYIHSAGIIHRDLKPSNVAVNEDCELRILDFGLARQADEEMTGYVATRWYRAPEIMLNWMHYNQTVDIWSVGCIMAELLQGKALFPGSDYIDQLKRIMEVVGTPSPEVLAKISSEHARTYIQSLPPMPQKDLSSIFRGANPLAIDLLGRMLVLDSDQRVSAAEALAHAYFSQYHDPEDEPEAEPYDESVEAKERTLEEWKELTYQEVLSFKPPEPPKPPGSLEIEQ", "summary_of_the_method": "as §1"}, "PKCgamma": {"biological_target": "T3, PKCgamma (Homo sapiens, UniProt P05129)", "T3 construct": "either as full-length or enzymatically active fragments; purchased ProQinase GmbH (Reaction Biology)", "summary_of_the_method": "as §1"}, "MAP3K7/MAP3K7IP1": {"biological_target": "T4, MAP3K7/MAP3K7IP1 (Homo sapiens, UniProt O43318)", "T4 construct": "either as full-length or enzymatically active fragments; purchased ProQinase GmbH (Reaction Biology)", "T4 sequence (O43318 whole entry, the tested form may be a part)": "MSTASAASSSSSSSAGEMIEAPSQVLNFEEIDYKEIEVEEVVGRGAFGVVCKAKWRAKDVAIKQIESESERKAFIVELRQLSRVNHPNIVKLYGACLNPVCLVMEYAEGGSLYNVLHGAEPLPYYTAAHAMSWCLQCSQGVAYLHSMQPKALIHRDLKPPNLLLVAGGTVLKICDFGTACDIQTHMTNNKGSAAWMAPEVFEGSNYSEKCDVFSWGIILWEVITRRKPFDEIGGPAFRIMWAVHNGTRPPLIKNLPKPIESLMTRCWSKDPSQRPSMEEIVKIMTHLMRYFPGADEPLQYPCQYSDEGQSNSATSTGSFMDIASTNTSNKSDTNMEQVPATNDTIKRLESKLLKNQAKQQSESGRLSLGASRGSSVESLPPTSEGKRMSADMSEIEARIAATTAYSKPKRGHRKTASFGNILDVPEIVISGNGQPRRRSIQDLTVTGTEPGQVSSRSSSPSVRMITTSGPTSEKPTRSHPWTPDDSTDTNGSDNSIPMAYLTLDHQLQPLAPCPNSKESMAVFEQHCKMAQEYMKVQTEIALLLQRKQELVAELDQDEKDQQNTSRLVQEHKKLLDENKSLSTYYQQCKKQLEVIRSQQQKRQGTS", "T4 sequence (Q15750 whole entry partner, the tested form may be a part)": "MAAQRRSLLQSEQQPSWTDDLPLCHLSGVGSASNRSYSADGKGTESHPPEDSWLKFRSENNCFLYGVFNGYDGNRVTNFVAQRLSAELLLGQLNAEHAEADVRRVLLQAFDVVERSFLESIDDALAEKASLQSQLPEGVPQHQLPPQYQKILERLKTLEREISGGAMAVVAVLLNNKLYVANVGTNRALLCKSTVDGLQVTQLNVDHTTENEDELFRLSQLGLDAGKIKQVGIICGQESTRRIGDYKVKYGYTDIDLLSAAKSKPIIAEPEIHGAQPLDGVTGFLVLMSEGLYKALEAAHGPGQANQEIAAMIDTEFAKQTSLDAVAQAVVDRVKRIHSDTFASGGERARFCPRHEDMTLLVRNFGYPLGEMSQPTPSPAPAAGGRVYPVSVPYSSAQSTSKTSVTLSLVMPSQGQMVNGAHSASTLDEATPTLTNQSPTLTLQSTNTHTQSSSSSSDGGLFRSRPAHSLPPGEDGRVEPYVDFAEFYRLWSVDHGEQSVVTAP", "summary_of_the_method": "as §1"}, "NEK3": {"biological_target": "T5, NEK3 (Homo sapiens, UniProt P51956)", "T5 construct": "either as full-length or enzymatically active fragments; purchased ProQinase GmbH (Reaction Biology)", "summary_of_the_method": "as §1"}, "TTBK2": {"biological_target": "T6, TTBK2 (Homo sapiens, UniProt Q6IQ55)", "T6 construct": "either as full-length or enzymatically active fragments; purchased ProQinase GmbH (Reaction Biology)", "summary_of_the_method": "as §1"}, "CDK8/CycC": {"biological_target": "T7, CDK8/CycC (Homo sapiens, UniProt P49336)", "T7 construct": "either as full-length or enzymatically active fragments; purchased ProQinase GmbH (Reaction Biology)", "summary_of_the_method": "as §1"}, "PAK2": {"biological_target": "T8, PAK2 (Homo sapiens, UniProt Q13177)", "T8 construct": "either as full-length or enzymatically active fragments; purchased ProQinase GmbH (Reaction Biology)", "summary_of_the_method": "as §1"}, "MLK4": {"biological_target": "T9, MLK4 (Homo sapiens, UniProt Q5TCX8)", "T9 construct": "either as full-length or enzymatically active fragments; purchased ProQinase GmbH (Reaction Biology); host or cells: Sf9 insect cells or E. coli (not specified per kinase)", "summary_of_the_method": "as §1"}, "CLK2": {"biological_target": "T10, CLK2 (Homo sapiens, UniProt P49760)", "T10 construct": "purchased ProQinase GmbH (Reaction Biology)", "summary_of_the_method": "as §1"}, "DAPK3": {"biological_target": "T11, DAPK3 (Homo sapiens, UniProt O43293)", "T11 construct": "purchased ProQinase GmbH (Reaction Biology)", "summary_of_the_method": "as §1"}, "ULK2": {"biological_target": "T12, ULK2 (Homo sapiens, UniProt Q8IYT8)", "T12 construct": "either as full-length or enzymatically active fragments; purchased ProQinase GmbH (Reaction Biology)", "summary_of_the_method": "as §1"}, "IKKepsilon": {"biological_target": "T13, IKKepsilon (Homo sapiens, UniProt Q14164)", "T13 construct": "either as full-length or enzymatically active fragments; purchased ProQinase GmbH (Reaction Biology)", "summary_of_the_method": "as §1"}, "PKCtheta": {"biological_target": "T14, PKCtheta (Homo sapiens, UniProt Q04759)", "T14 construct": "purchased ProQinase GmbH (Reaction Biology); host or cells: Sf9 insect cells or E. coli (not specified per kinase)", "summary_of_the_method": "as §1"}, "MUSK": {"biological_target": "T15, MUSK (Homo sapiens, UniProt O15146)", "T15 construct": "either as full-length or enzymatically active fragments; purchased ProQinase GmbH (Reaction Biology)", "summary_of_the_method": "as §1"}, "PKMYT1": {"biological_target": "T16, PKMYT1 (Homo sapiens, UniProt Q99640)", "T16 construct": "either as full-length or enzymatically active fragments; purchased ProQinase GmbH (Reaction Biology)", "summary_of_the_method": "as §1"}, "TEC": {"biological_target": "T17, TEC (Homo sapiens, UniProt P42680)", "T17 construct": "either as full-length or enzymatically active fragments; purchased ProQinase GmbH (Reaction Biology)", "T17 sequence (P42680 whole entry, the tested form may be a part)": "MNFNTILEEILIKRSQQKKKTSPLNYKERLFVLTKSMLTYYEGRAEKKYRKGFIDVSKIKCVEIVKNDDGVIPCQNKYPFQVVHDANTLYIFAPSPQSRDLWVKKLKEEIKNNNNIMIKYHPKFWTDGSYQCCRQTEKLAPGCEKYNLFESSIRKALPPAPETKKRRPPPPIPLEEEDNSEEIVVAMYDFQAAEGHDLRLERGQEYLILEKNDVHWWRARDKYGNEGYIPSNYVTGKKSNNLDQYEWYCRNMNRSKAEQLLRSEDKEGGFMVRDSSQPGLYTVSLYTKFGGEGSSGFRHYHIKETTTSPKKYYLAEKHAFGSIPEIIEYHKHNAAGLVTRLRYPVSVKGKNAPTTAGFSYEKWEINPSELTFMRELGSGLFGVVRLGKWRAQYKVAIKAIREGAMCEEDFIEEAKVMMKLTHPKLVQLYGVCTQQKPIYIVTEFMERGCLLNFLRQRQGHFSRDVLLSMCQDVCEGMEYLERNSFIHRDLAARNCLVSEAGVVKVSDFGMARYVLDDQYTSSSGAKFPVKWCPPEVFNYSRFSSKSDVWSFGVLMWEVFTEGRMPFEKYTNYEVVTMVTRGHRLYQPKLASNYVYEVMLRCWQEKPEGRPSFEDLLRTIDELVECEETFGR", "summary_of_the_method": "as §1"}, "TRKB": {"biological_target": "T18, TRKB (Homo sapiens, UniProt Q16620)", "T18 construct": "purchased ProQinase GmbH (Reaction Biology)", "T18 sequence (Q16620 32-822)": "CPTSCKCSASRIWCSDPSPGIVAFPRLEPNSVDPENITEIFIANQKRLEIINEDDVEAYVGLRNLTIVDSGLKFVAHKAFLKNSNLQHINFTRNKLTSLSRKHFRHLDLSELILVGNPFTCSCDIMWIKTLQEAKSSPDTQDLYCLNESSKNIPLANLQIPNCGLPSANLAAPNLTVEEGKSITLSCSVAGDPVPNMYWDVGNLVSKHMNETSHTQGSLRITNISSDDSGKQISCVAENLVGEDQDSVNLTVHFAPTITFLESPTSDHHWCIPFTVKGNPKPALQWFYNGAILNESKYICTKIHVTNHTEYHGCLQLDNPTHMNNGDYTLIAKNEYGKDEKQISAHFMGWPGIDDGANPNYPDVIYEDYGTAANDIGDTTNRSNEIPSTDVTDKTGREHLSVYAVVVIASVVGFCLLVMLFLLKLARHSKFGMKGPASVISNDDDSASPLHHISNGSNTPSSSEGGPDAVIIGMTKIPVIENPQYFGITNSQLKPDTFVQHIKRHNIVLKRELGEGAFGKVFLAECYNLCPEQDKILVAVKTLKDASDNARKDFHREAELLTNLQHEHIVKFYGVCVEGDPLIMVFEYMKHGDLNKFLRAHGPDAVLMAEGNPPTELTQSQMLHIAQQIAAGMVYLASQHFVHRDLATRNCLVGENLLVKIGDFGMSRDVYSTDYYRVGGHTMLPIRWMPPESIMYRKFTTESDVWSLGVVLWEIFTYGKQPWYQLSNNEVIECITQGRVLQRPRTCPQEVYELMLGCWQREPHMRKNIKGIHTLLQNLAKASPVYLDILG", "summary_of_the_method": "as §1"}, "PRKX": {"biological_target": "T19, PRKX (Homo sapiens, UniProt P51817)", "T19 construct": "either as full-length or enzymatically active fragments; purchased ProQinase GmbH (Reaction Biology)", "summary_of_the_method": "as §1"}, "IKKbeta": {"biological_target": "T20, IKKbeta (Homo sapiens, UniProt O14920)", "T20 construct": "purchased ProQinase GmbH (Reaction Biology); host or cells: Sf9 insect cells or E. coli (not specified per kinase)", "T20 sequence (O14920 whole entry)": "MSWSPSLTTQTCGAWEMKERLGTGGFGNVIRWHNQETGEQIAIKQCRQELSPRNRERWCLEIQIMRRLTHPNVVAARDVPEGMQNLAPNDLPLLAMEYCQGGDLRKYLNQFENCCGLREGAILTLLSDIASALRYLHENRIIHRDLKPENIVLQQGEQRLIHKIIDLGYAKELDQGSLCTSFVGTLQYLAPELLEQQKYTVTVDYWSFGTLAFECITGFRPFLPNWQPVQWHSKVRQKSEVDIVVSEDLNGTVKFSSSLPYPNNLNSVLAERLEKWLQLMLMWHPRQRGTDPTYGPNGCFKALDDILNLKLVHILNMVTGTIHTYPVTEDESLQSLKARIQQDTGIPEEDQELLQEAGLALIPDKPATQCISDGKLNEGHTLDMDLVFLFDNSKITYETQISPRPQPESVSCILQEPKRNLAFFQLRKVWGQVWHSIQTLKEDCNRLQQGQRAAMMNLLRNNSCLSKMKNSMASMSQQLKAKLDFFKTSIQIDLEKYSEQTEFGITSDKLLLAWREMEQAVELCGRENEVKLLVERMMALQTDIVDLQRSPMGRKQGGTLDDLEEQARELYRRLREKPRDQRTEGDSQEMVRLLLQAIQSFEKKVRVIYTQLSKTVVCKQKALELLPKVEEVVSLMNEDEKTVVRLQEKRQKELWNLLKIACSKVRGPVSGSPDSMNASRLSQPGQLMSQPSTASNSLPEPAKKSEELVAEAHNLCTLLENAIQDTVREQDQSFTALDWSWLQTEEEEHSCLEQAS", "summary_of_the_method": "as §1"}, "ACVR2A": {"biological_target": "T21, ACVR2A (Homo sapiens, UniProt P27037)", "T21 construct": "either as full-length or enzymatically active fragments; purchased ProQinase GmbH (Reaction Biology)", "summary_of_the_method": "as §1"}, "GRK2": {"biological_target": "T22, GRK2 (Homo sapiens, UniProt P25098)", "T22 construct": "either as full-length or enzymatically active fragments; purchased ProQinase GmbH (Reaction Biology)", "summary_of_the_method": "as §1"}, "CDK2/CycE1": {"biological_target": "T23, CDK2/CycE1 (Homo sapiens, UniProt P24941)", "T23 construct": "either as full-length or enzymatically active fragments; purchased ProQinase GmbH (Reaction Biology); host or cells: Sf9 insect cells or E. coli (not specified per kinase)", "summary_of_the_method": "as §1"}, "HIPK2": {"biological_target": "T24, HIPK2 (Homo sapiens, UniProt Q9H2X6)", "T24 construct": "purchased ProQinase GmbH (Reaction Biology)", "summary_of_the_method": "as §1"}, "CDK20/CycT1": {"biological_target": "T25, CDK20/CycT1 (Homo sapiens, UniProt Q8IZL9)", "T25 construct": "either as full-length or enzymatically active fragments; purchased ProQinase GmbH (Reaction Biology)", "summary_of_the_method": "as §1"}, "DYRK2": {"biological_target": "T26, DYRK2 (Homo sapiens, UniProt Q92630)", "T26 construct": "purchased ProQinase GmbH (Reaction Biology); host or cells: Sf9 insect cells or E. coli (not specified per kinase)", "summary_of_the_method": "as §1"}, "ARK5": {"biological_target": "T27, ARK5 (Homo sapiens, UniProt O60285)", "T27 construct": "either as full-length or enzymatically active fragments; purchased ProQinase GmbH (Reaction Biology); host or cells: Sf9 insect cells or E. coli (not specified per kinase)", "summary_of_the_method": "as §1"}, "WNK3": {"biological_target": "T28, WNK3 (Homo sapiens, UniProt Q9BYP7)", "T28 construct": "either as full-length or enzymatically active fragments; purchased ProQinase GmbH (Reaction Biology)", "summary_of_the_method": "as §1"}, "MAP3K9": {"biological_target": "T29, MAP3K9 (Homo sapiens, UniProt P80192)", "T29 construct": "either as full-length or enzymatically active fragments; purchased ProQinase GmbH (Reaction Biology)", "summary_of_the_method": "as §1"}, "SAK": {"biological_target": "T30, SAK (Homo sapiens, UniProt O00444)", "T30 construct": "either as full-length or enzymatically active fragments; purchased ProQinase GmbH (Reaction Biology)", "T30 sequence (O00444 whole entry, the tested form may be a part)": "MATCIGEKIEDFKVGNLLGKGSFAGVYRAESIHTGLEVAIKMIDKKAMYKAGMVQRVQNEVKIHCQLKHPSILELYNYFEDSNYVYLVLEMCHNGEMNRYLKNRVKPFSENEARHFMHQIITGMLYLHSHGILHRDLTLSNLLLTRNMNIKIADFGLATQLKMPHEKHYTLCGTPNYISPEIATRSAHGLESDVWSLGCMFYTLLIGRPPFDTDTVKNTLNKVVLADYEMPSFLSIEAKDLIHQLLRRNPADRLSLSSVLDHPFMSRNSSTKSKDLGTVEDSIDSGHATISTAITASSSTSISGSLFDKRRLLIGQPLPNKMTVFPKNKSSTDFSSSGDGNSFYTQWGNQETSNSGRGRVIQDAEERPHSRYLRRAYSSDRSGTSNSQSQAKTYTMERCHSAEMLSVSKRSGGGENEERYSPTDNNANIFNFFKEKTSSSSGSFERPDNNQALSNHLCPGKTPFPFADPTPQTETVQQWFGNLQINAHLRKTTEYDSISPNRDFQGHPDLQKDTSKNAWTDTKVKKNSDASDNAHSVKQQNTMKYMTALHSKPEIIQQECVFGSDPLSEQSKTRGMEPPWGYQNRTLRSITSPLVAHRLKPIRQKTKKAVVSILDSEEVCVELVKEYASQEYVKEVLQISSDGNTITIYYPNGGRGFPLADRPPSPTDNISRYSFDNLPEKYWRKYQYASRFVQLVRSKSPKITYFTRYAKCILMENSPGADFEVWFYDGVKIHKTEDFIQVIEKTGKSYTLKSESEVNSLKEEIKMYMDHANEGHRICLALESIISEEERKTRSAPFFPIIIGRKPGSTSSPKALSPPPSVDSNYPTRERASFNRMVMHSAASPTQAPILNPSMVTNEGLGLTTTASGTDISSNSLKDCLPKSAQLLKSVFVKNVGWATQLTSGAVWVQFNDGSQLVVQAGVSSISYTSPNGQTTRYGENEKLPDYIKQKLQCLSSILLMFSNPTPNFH", "summary_of_the_method": "as §1"}, "S6K": {"biological_target": "T31, S6K (Homo sapiens, UniProt P23443)", "T31 construct": "either as full-length or enzymatically active fragments; purchased ProQinase GmbH (Reaction Biology); host or cells: Sf9 insect cells or E. coli (not specified per kinase)", "summary_of_the_method": "as §1"}}, "data": [{"molecule": "C=CC(=O)Nc1ccc(C(=O)N2CC[C@@H](Nc3ncc(C#N)cn3)C2)cc1", "note": "[Compound 4, (R)-N-(4-(3-((5-cyanopyrimidin-2-yl)amino)pyrrolidine-1-carbonyl)phenyl)acrylamide]", "values": [{"measurement": "inhibition at 1 µM", "setting": "PBK", "result": 0, "unit": "%"}, {"measurement": "inhibition at 1 µM", "setting": "p38beta", "result": 8, "unit": "%"}, {"measurement": "inhibition at 1 µM", "setting": "PKCgamma", "result": -9, "unit": "%"}, {"measurement": "inhibition at 1 µM", "setting": "MAP3K7/MAP3K7IP1", "result": 2, "unit": "%"}, {"measurement": "inhibition at 1 µM", "setting": "NEK3", "result": 6, "unit": "%"}, {"measurement": "inhibition at 1 µM", "setting": "TTBK2", "result": 3, "unit": "%"}, {"measurement": "inhibition at 1 µM", "setting": "CDK8/CycC", "result": 3, "unit": "%"}, {"measurement": "inhibition at 1 µM", "setting": "PAK2", "result": 16, "unit": "%"}, {"measurement": "inhibition at 1 µM", "setting": "MLK4", "result": 9, "unit": "%"}, {"measurement": "inhibition at 1 µM", "setting": "CLK2", "result": -2, "unit": "%"}, {"measurement": "inhibition at 1 µM", "setting": "DAPK3", "result": 0, "unit": "%"}, {"measurement": "inhibition at 1 µM", "setting": "ULK2", "result": 3, "unit": "%"}, {"measurement": "inhibition at 1 µM", "setting": "IKKepsilon", "result": 7, "unit": "%"}, {"measurement": "inhibition at 1 µM", "setting": "PKCtheta", "result": 1, "unit": "%"}, {"measurement": "inhibition at 1 µM", "setting": "MUSK", "result": 7, "unit": "%"}, {"measurement": "inhibition at 1 µM", "setting": "PKMYT1", "result": 5, "unit": "%"}, {"measurement": "inhibition at 1 µM", "setting": "TEC", "result": 5, "unit": "%"}, {"measurement": "inhibition at 1 µM", "setting": "TRKB", "result": -1, "unit": "%"}, {"measurement": "inhibition at 1 µM", "setting": "PRKX", "result": -7, "unit": "%"}, {"measurement": "inhibition at 1 µM", "setting": "IKKbeta", "result": 1, "unit": "%"}, {"measurement": "inhibition at 1 µM", "setting": "ACVR2A", "result": 7, "unit": "%"}, {"measurement": "inhibition at 1 µM", "setting": "GRK2", "result": 7, "unit": "%"}, {"measurement": "inhibition at 1 µM", "setting": "CDK2/CycE1", "result": 9, "unit": "%"}, {"measurement": "inhibition at 1 µM", "setting": "HIPK2", "result": 0, "unit": "%"}, {"measurement": "inhibition at 1 µM", "setting": "CDK20/CycT1", "result": 5, "unit": "%"}, {"measurement": "inhibition at 1 µM", "setting": "DYRK2", "result": 1, "unit": "%"}, {"measurement": "inhibition at 1 µM", "setting": "ARK5", "result": 10, "unit": "%"}, {"measurement": "inhibition at 1 µM", "setting": "WNK3", "result": -6, "unit": "%"}, {"measurement": "inhibition at 1 µM", "setting": "MAP3K9", "result": -4, "unit": "%"}, {"measurement": "inhibition at 1 µM", "setting": "SAK", "result": -11, "unit": "%"}, {"measurement": "inhibition at 1 µM", "setting": "S6K", "result": 9, "unit": "%"}]}]}
